Values quoted from earlier work as cited in patent EP1870093A1, “Pharmaceutical combination comprising adenosine A1 receptor antagonists and radiocontrast media” (Solvay Pharmaceuticals GmbH, priority 2006, dated 2007).

System: radiocontrast media induced nephropathy
Conditions: Shammas 2001; Welch 2002; Huber 2002

Compound | protection against radiocontrast media induced nephropathy
Cn1c(=O)c2[nH]cnc2n(C)c1=O [Aminophylline, aminophylline] | does not appear to add a protective role
Cn1c(=O)c2[nH]cnc2n(C)c1=O [theophylline] | effective in preventing radiocontrast media induced nephropathy
